Test system: anti-HCV antibodies (HCV-positive sera)
Test: ELISA detection of anti-HCV antibodies in HCV-positive sera with adsorbed peptides
Assay type: binding, human
Protocol: The reactivity of these three peptides towards the sera of individuals infected with the hepatitis C virus, termed (HCV) positive, was evaluated in an ELISA test according to the procedure described below.
Detection of anti-HCV Antibodies by ELISA
The wells of a microtiter plate of "NUNC MAXISORB™" trademark are saturated with 100 μl of a solution containing the peptide or a mixture of peptides (10 μg/ml) for 2 hours at 37° C. The plate is then emptied, then washed with a wash buffer containing 0.05% TWEEN™ 20(polysorbate 20). The wells are saturated with 100 μl of wash buffer supplemented with 10% goat serum (v/v), then incubated for 30 minutes at 37° C., then washed again as above. The sera to be analyzed are diluted to the appropriate dilution with saturation buffer. The incubation of the sera is 1 hour at 37° C. The wells are again washed. The solution of conjugate (goat IgG to human IgG labelled with peroxidase) at a dilution of 1/1000 in the saturation buffer is then added and the incubation lasts for 90 minutes at 37° C. After washing, the solution of orthophenylenediamine substrate is added. After 10 minutes, the reaction is stopped with 50 μl of H2 SO4 and the optical density is read at 492 nm. It should be noted that all the tests were carried out in duplicate.
For that, the different peptides are adsorbed on the microplates at a concentration of 10 μg/ml and the sera are used at 1/100 dilution.
The values obtained, which are collated in Table 1 below, correspond to the optical density (OD) multiplied by 10^3, at 492 nm.
For each serum the experiment was carried out in duplicate. The **** are values outside the upper scale.
The different peptides are absorbed onto microplates at a concentration of 10 μg/ml and the sera are used at the dilution stated.
The values obtained, which are collated in Table 2 below, correspond to the optical density at 492 nm. All the experiments were carried out in duplicate.
Each serum was, in a first instance, tested at the dilution 1/100.
The values given correspond to the optical density read at 492 nm multiplied by the factor 10^3.

K22Y: peptide corresponding to the amino acid sequence 12 to 35 of the CORE protein (KRNTNRRPQDVKFPGGGQIVGGVY)
optical density at 492 nm (Table 4, serum A 8, 1/1000): 431 OD × 10^3 | optical density at 492 nm (Table 4, serum A 8, 1/10,000): 56 OD × 10^3 | optical density at 492 nm (Table 4, serum A 9, 1/100): 2152 OD × 10^3 | optical density at 492 nm (Table 4, serum A 9, 1/1000): 282 OD × 10^3 | optical density at 492 nm (Table 4, serum A 9, 1/10,000): 43 OD × 10^3 | optical density at 492 nm (Table 4, serum A 10, 1/100): 2114 OD × 10^3 | optical density at 492 nm (Table 4, serum A 10, 1/1000): 207 OD × 10^3 | optical density at 492 nm (Table 4, serum A 10, 1/10,000): 26 OD × 10^3 | optical density at 492 nm (Table 4, serum A 11, 1/100): 1878 OD × 10^3 | optical density at 492 nm (Table 4, serum A 11, 1/1000): 212 OD × 10^3 | optical density at 492 nm (Table 4, serum A 11, 1/10,000): 31 OD × 10^3 | optical density at 492 nm (Table 4, serum A 12, 1/1000): 646 OD × 10^3 | optical density at 492 nm (Table 4, serum A 12, 1/10,000): 62 OD × 10^3 | optical density at 492 nm (Table 4, serum B 3, 1/100): 2033 OD × 10^3 | optical density at 492 nm (Table 4, serum P 1, 1/100): 435 OD × 10^3 | optical density at 492 nm (Table 4, serum P 2, 1/100): 666 OD × 10^3 | optical density at 492 nm (Table 4, serum P 3, 1/100): 1031 OD × 10^3 | optical density at 492 nm (Table 4, serum P 4, 1/1000): 1959 OD × 10^3 | optical density at 492 nm (Table 4, serum P 4, 1/10,000): 300 OD × 10^3 | optical density at 492 nm (Table 4, serum P 5, 1/10,000): 394 OD × 10^3 | optical density at 492 nm (Table 4, serum P 7, 1/10,000): 1487 OD × 10^3 | optical density at 492 nm (Table 4, serum P 8, 1/1000): 2257 OD × 10^3 | optical density at 492 nm (Table 4, serum P 8, 1/10,000): 335 OD × 10^3 | optical density at 492 nm (Table 4, serum P 10, 1/100): 66 OD × 10^3 | optical density at 492 nm (Table 4, serum P 14, 1/10,000): 398 OD × 10^3 | optical density at 492 nm (Table 4, serum P 16, 1/1000): 610 OD × 10^3 | optical density at 492 nm (Table 4, serum P 16, 1/10,000): 75 OD × 10^3 | optical density at 492 nm (Table 4, serum P 17, 1/100): 1930 OD × 10^3 | optical density at 492 nm (Table 4, serum P 23, 1/100): 125 OD × 10^3 | optical density at 492 nm (Table 4, serum P 24, 1/100): 735 OD × 10^3 | optical density at 492 nm (Table 4, serum P 29, 1/100): 310 OD × 10^3 | optical density at 492 nm (Table 4, serum P 30, 1/100): 1805 OD × 10^3

K32G: peptide corresponding to the amino acid sequence 12 to 45 of the CORE protein (KRNTNRRPQDVKFPGGGQIVGGVYLLPRRGPTLG)
optical density at 492 nm (Table 5, serum A8, 1/10,000): 666 OD × 10^3 | optical density at 492 nm (Table 5, serum A 9, 1/1000): 1675 OD × 10^3 | optical density at 492 nm (Table 5, serum A 9, 1/10,000): 229 OD × 10^3 | optical density at 492 nm (Table 5, serum A11, 1/1000): 2108 OD × 10^3 | optical density at 492 nm (Table 5, serum A11, 1/10,000): 343 OD × 10^3 | optical density at 492 nm (Table 5, serum A12, 1/10,000): 598 OD × 10^3 | optical density at 492 nm (Table 5, serum A13, 1/10,000): 1247 OD × 10^3 | optical density at 492 nm (Table 5, serum A14, 1/1000): 998 OD × 10^3 | optical density at 492 nm (Table 5, serum A14, 1/10,000): 103 OD × 10^3 | optical density at 492 nm (Table 5, serum A15, 1/10,000): 715 OD × 10^3 | optical density at 492 nm (Table 5, serum A19, 1/10,000): 594 OD × 10^3 | optical density at 492 nm (Table 5, serum A21, 1/1000): 993 OD × 10^3 | optical density at 492 nm (Table 5, serum A21, 1/10,000): 123 OD × 10^3 | optical density at 492 nm (Table 5, serum A22, 1/1000): 876 OD × 10^3 | optical density at 492 nm (Table 5, serum A22, 1/10,000): 129 OD × 10^3 | optical density at 492 nm (Table 5, serum A23, 1/10,000): 774 OD × 10^3 | reactivity towards HCV-positive sera (in words): little or no difference is observed in reactivity

From patent US6235284A, “Synthetic polypeptides belonging to the hepatitis C virus (HCV) and which can be used especially for detecting the latter” (Bio Merieux, priority 1992, dated 2001)
